Measured values as given in US20130266590A1, “DIMERIC IAP INHIBITORS” (NOVARTIS AG, priority 2010, published 2013).
Like-named read-outs stand apart in the source and are kept apart here.

How the values were obtained:
XIAP-BIR3 = XIAP-BIR3 (Homo sapiens, UniProt P98170); assay: Biacore SPR solution competition binding assay vs smac7mer peptide, XIAP-BIR3; settings: 100 nM XIAP-BIR3, read-out: XIAP-BIR3 Binding Biacore (Competitive) EC50
Source text: (§1) The compounds described herein above were profiled using a cellular assay (using Panc3.27 tumor cells) and a binding assay to determine the competition between the compounds of the present invention and smac7mer peptide for XIAP-BIR3 and cIAP1-BIR3 binding groove occupancy.
(§2) The present method includes utility of a Surface plasmon resonance (SPR)-based biosensor (Biacore™, GE Healthcare, Uppsala, Sweden) to examine competition between the compounds of the present invention and smac7mer peptide for XIAP-BIR3 and cIAP1-BIR3 binding groove occupancy.
(§3) Biacore™ utilizes the phenomenon of surface plasmon resonance (SPR) to detect and measure binding interactions. In a typical Biacore experiment, one of the interacting molecules is immobilized on a flexible dextran matrix while the interacting partner is flowed over the derivatized surface. A binding interaction results in an increase in mass on the sensor surface and a corresponding direct change in the refractive index of the medium in the vicinity of the sensor surface. Changes in refractive index or signal are recorded in resonance units (R.U.) Signal changes due to association and dissociation of complexes are monitored in a non-invasive manner, continuously and in real-time, the results of which are reported in the form of a sensorgram.
(§4) Biacore™ T100 (GE Healthcare, Uppsala, Sweden) was used to conduct all experiments reported herein. Sensor surface preparation and interaction analyses were performed at 25° C. Buffer and Biacore reagents were purchased from GE Healthcare. Running buffer containing 10 mM Hepes, pH7.4, 150 mM sodium chloride, 1.25 mM Dithiothreitol, 2% Dimethyl sulfoxide and 0.05% polysorbate 20 was utilized throughout all experiments.
(§5) Biotinylated smac7mer peptide was diluted to 10 nM in running buffer and captured onto a sensor surface pre-derivatized with streptavidin (sensor chip SA) towards peptide surface densities in the range 40-100 R.U. Peptide captured surfaces were blocked with 500 μM PEO2-Biotin (Thermo Scientific).
(§6) Interaction analyses were performed by first equilibrating each compound within a six point seven fold compound dilution series in the range 1 μM to 0.06 nM with either 100 nM XIAP-BIR3 or 6 nM cIAP1-BIR3 for at least one hour during instrument start-up procedures. Protein compound mixtures were then injected over reference and smac7mer peptide surfaces in series for 60 seconds at a flow-rate of 60 μL/min. Surface regeneration was performed at the end of each analysis cycle by a 30 second injection of 10 mM Glycine, pH 2.5, 1M Sodium Chloride, 0.05% polysorbate 20. Additionally, control compound samples and control XIAP-BIR3 or cIAP1-BIR3 samples were prepared and run at regular intervals to monitor surface and assay performance.
(§7) Data analyses were carried out using Biacore™ T100 evaluation software v2.0 to validate assay quality. Binding level report points were plotted versus logarithmic compound concentration values and analyzed in Graphpad prism 5 via non-linear regression using a one-site competition model. EC50 values were generated and used as a measure of inhibitor potency.

cIAP1-BIR3 = cIAP1-BIR3 (Homo sapiens, UniProt Q13490); assay: Biacore SPR solution competition binding assay vs smac7mer peptide, cIAP1-BIR3; settings: 6 nM cIAP1-BIR3, read-out: CIAP-BIR3 Binding Biacore (Competitive) EC50
Source text: as §1, §2, §3, §4, §5, §6, §7

Panc3.27 tumor cells = assay: Cellular assay: Panc3.27 tumor cell proliferation (Cell Titer Glo); type: cell-based; settings: Panc3.27 cells, 4000 cells per well, 72 hour growth, CTG readout, percent control growth; read-out: PANC proliferation IC50
Method: as §1
Cellular Assay—Treatment of Panc3.27 Tumor Cells with Dimeric IAP Antagonists
On day one adherent Panc3.27 cells are plated into two 96-well, clear, flat bottom plates. All wells in row A contain 90 uL of media. All wells in rows B-G contain a total volume of 90 uL per well and 4000 cells per well for Panc3.27 cell lines. Plates are then incubated overnight for 18 hours at 37° C., 5% CO2.
On day two cells are treated with the compounds of formula M-L-M′. Treatments are done in triplicate. The compounds are first serially diluted in DMSO and then added to media giving a final concentration of 0.2% DMSO when added to cells. Cells are treated with 10 uL of serially diluted compounds of formula M-L-M′ at a final concentration of 1000 nM, 200 nM, 40 nM, 8 nM, 1.6 nM, 0.32 nM, 0.06 nM, 0.013 nM, 0.0026 nM, and one untreated well. Plate two is used as a time zero plate.
To measure cell viability 50 uL of Cell Titer Glo (CTG) solution is added to row A, media only and B, cells and media. CTG is purchased from Promega Corporation catalog number G7573. The solution is prepared according to manufacturer's instructions. CTG measures the amount of ATP released from viable cells that is proportional to the number of cells in each well. After incubating for ten minutes with CTG plates are measured on a luminescent reader at 700 nm wavelength. Read time is approximately one second per well for a 96-well plate.
On day five 50 uL of CTG is added to plate one, rows A-G, incubated for 10 minutes at room temperature and read on a luminescent reader. Raw data is adjusted to account for the time zero plate as well as background noise. Triplicate values are averaged and percent control growth is calculated. Percent control growth is calculated using the following logical test: If well read data point (a) is greater than time zero data point (t=0), then 100*[(a)−(t=0)]/[(72 hour total growth)−(t=0)], OR 100*[(a)−(t=0)]/[(t=0)]. Data is represented by line graph with the concentration of compound on the x axis and percent control growth on the y axis.

[1] = SPR competition with captured smac7mer peptide, 25° C.

Sequence of XIAP-BIR3 (P98170 241-356 limits assumed): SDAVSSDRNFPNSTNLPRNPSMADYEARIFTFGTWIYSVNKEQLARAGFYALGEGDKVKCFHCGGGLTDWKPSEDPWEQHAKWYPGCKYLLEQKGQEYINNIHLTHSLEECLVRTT
Sequence of cIAP1-BIR3 (Q13490 253-363 limits assumed): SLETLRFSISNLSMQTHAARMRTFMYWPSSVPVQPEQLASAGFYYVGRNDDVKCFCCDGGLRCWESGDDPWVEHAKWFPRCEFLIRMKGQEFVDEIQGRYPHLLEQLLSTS

| Compound | EC50 (XIAP-BIR3; [1]) [nM] | EC50 (cIAP1-BIR3; Tested as the citrate salt (footnote 1), SPR competition with smac7mer peptide) [nM] | IC50 (Panc3.27 tumor cells) [nM] | EC50 (cIAP1-BIR3; [1]) [nM] | EC50 (XIAP-BIR3; Tested as the trifluoroacetate salt (footnote 2), SPR competition with smac7mer peptide) [nM] |
| --- | --- | --- | --- | --- | --- |
| CN[C@@H](C)C(=O)N[C@H](C(=O)N1CCC[C@H]1c1cncc(-c2ccc(F)c(C(=O)NCCCOCCOCCOCCOCCOCCCNC(=O)c3cc(-c4cncc([C@@H]5CCCN5C(=O)[C@@H](NC(=O)[C@H](C)NC)C5CCCCC5)c4)ccc3F)c2)c1)C1CCCCC1 [Example 1A-1] | 353 to 359 | 1.55 to 1.6 | 0.15 to 2.87 |  |  |
| CN[C@@H](C)C(=O)N[C@H](C(=O)N1CCC[C@H]1c1cncc(-c2ccc(F)c(C(=O)NCCNC(=O)c3cc(-c4cncc([C@@H]5CCCN5C(=O)[C@@H](NC(=O)[C@H](C)NC)C5CCCCC5)c4)ccc3F)c2)c1)C1CCCCC1 [Example 2A-1] | 135 to 136 |  | 2.11 to 7.69 | 1.1 to 1.11 |  |
| CN[C@@H](C)C(=O)N[C@H](C(=O)N1CCC[C@H]1c1cncc(-c2ccc(F)c(C(=O)NCCCCCCCCCCNC(=O)c3cc(-c4cncc([C@@H]5CCCN5C(=O)[C@@H](NC(=O)[C@H](C)NC)C5CCCCC5)c4)ccc3F)c2)c1)C1CCCCC1 [Example 2D-1] | 1520 to 1920 |  | 0.0026 to 0.15 | 1.35 to 2.17 |  |
| CN[C@@H](C)C(=O)N[C@H](C(=O)N1CCC[C@H]1c1cncc(-c2ccc(F)c(C(=O)NCCCCCCCCCCCCNC(=O)c3cc(-c4cncc([C@@H]5CCCN5C(=O)[C@@H](NC(=O)[C@H](C)NC)C5CCCCC5)c4)ccc3F)c2)c1)C1CCCCC1 [Example 2E-1] | > 1000 |  | 0.07 to 4.93 | 5.65 to 6.37 |  |
| CN[C@@H](C)C(=O)N[C@H](C(=O)N1CCC[C@H]1c1cncc(-c2ccc(F)c(C(=O)NCCCCCCCCNC(=O)c3cc(-c4cncc([C@@H]5CCCN5C(=O)[C@@H](NC(=O)[C@H](C)NC)C5CCCCC5)c4)ccc3F)c2)c1)C1CCCCC1 [Example 2G-1, (S,S,S)—N,N′-(octane-1,8-diyl)bis(5-(5-((S)-1-((S)-2-cyclohexyl-2-((S)-2-(methylamino)propanamido)acetyl)pyrrolidin-2-yl)pyridin-3-yl)-2-fluorobenzamide)] | 426 to 495 |  | 0.0026 to 0.03 | 1.26 to 1.31 |  |
| CN[C@@H](C)C(=O)N[C@H](C(=O)N1CCC[C@H]1c1cncc(-c2ccc(F)c(C(=O)NCCOCCOCCNC(=O)c3cc(-c4cncc([C@@H]5CCCN5C(=O)[C@@H](NC(=O)[C@H](C)NC)C5CCCCC5)c4)ccc3F)c2)c1)C1CCCCC1 [Example 2H-1] | 244 to 252 |  | 0.03 to 0.07 | 1.84 to 1.89 |  |
| CN[C@@H](C)C(=O)N[C@H](C(=O)N1CCC[C@H]1c1cncc(-c2ccc(F)c(C(=O)NCCCCNC(=O)c3cc(-c4cncc([C@@H]5CCCN5C(=O)[C@@H](NC(=O)[C@H](C)NC)C5CCCCC5)c4)ccc3F)c2)c1)C1CCCCC1 [Example 2I-1] | 318 to 326 |  | 0.0026 to 0.4 | 2.79 to 2.8 |  |
| CN[C@@H](C)C(=O)N[C@H](C(=O)N1CCC[C@H]1c1cncc(-c2ccc(F)c(C(=O)NCCCOCCOCCOCCCNC(=O)c3cc(-c4cncc([C@@H]5CCCN5C(=O)[C@@H](NC(=O)[C@H](C)NC)C5CCCCC5)c4)ccc3F)c2)c1)C1CCCCC1 [Example 2J-2] | 156 |  | 0.03 to 0.59 | 1.39 to 1.4 |  |
| CN[C@@H](C)C(=O)N[C@H](C(=O)N1CCC[C@H]1c1cncc(-c2ccc(F)c(C(=O)NCCCOCCOCCCNC(=O)c3cc(-c4cncc([C@@H]5CCCN5C(=O)[C@@H](NC(=O)[C@H](C)NC)C5CCCCC5)c4)ccc3F)c2)c1)C1CCCCC1 [Example 2L-2] | 480 to 488 |  | 0.01 to 0.56 | 3.35 to 3.38 |  |
| CN[C@@H](C)C(=O)N[C@H](C(=O)N1CCC[C@H]1c1cncc(-c2ccc(F)c(C(=O)N3CC4(C3)CN(C(=O)c3cc(-c5cncc([C@@H]6CCCN6C(=O)[C@@H](NC(=O)[C@H](C)NC)C6CCCCC6)c5)ccc3F)C4)c2)c1)C1CCCCC1 [Example 2M-2] | 176 to 177 |  | 9.02 to 40.8 | 3.74 to 3.75 |  |

Results, then the molecule that gave them:

| EC50 (XIAP-BIR3; [1]) [nM] | EC50 (cIAP1-BIR3; Tested as the citrate salt (footnote 1), SPR competition with smac7mer peptide) [nM] | IC50 (Panc3.27 tumor cells) [nM] | EC50 (cIAP1-BIR3; [1]) [nM] | EC50 (XIAP-BIR3; Tested as the trifluoroacetate salt (footnote 2), SPR competition with smac7mer peptide) [nM] | Compound |
| --- | --- | --- | --- | --- | --- |
| 347 to 353 |  | < 0.0026 | 0.77 to 0.79 |  | CN[C@@H](C)C(=O)N[C@H](C(=O)N1CCC[C@H]1c1cncc(-c2ccc(F)c(C(=O)NCc3ccc(CNC(=O)c4cc(-c5cncc([C@@H]6CCCN6C(=O)[C@@H](NC(=O)[C@H](C)NC)C6CCCCC6)c5)ccc4F)cc3)c2)c1)C1CCCCC1 [Example 2B-1, (S,S,S)—N,N′-(1,4-phenylenebis(methylene))bis(5-(5-((S)-1-((S)-2-cyclohexyl-2-((S)-2-(methylamino)propanamido)acetyl)pyrrolidin-2-yl)pyridin-3-yl)-2-fluorobenzamide)] |
|  |  | < 0.0026 | 0.98 to 0.99 | 2330 to 2390 | CN[C@@H](C)C(=O)N[C@H](C(=O)N1CCC[C@H]1c1cncc(-c2ccc(F)c(C(=O)NCc3ccc(-c4ccc(CNC(=O)c5cc(-c6cncc([C@@H]7CCCN7C(=O)[C@@H](NC(=O)[C@H](C)NC)C7CCCCC7)c6)ccc5F)cc4)cc3)c2)c1)C1CCCCC1 [Example 2C-2, (S,S,S)—N,N′-(biphenyl-4,4′-diylbis(methylene))bis(5-(5-((S)-1-((S)-2-cyclohexyl-2-((S)-2-(methylamino)propanamido)acetyl)pyrrolidin-2-yl)pyridin-3-yl)-2-fluorobenzamide)] |
| 305 to 306 |  | 0.0026 to 0.01 | 1.34 to 1.36 |  | CN[C@@H](C)C(=O)N[C@H](C(=O)N1CCC[C@H]1c1cncc(-c2ccc(F)c(C(=O)NCCCCCCNC(=O)c3cc(-c4cncc([C@@H]5CCCN5C(=O)[C@@H](NC(=O)[C@H](C)NC)C5CCCCC5)c4)ccc3F)c2)c1)C1CCCCC1 [Example 2F-1] |
| 321 to 322 |  | < 0.0026 | 1.65 to 1.66 |  | CN[C@@H](C)C(=O)N[C@H](C(=O)N1CCC[C@H]1c1cncc(-c2ccc(F)c(C(=O)N[C@H]3CC[C@H](NC(=O)c4cc(-c5cncc([C@@H]6CCCN6C(=O)[C@@H](NC(=O)[C@H](C)NC)C6CCCCC6)c5)ccc4F)CC3)c2)c1)C1CCCCC1 [Example 2K-1] |
| 75.2 to 75.5 |  | 0.0026 to 0.02 | 1.27 to 1.36 |  | CN[C@@H](C)C(=O)N[C@H](C(=O)N1CCC[C@H]1c1cncc(-c2ccc(F)c(C(=O)NNC(=O)c3cc(-c4cncc([C@@H]5CCCN5C(=O)[C@@H](NC(=O)[C@H](C)NC)C5CCCCC5)c4)ccc3F)c2)c1)C1CCCCC1 [Example 2N-2] |
